The values that follow come from patent US20260068888A1, “ALGICIDAL FOAM COMPOSITIONS AND METHODS OF MAKING AND USING THEREOF” (THE ADMINISTRATORS OF THE TULANE EDUCATIONAL FUND, priority 2024, published 2026).

Each structure is given as a SMILES string. Some results are limits rather than exact numbers.

The experiment deals with Karenia brevis (KB) cells. The experiment in a line: SYTOX-Green assay of cell-membrane integrity. It counts as cell-based. The procedure:
SYTOX-Green Assay. The effects of treatments on the cells were also investigated utilizing the SYTOX-green assay, a technique designed to evaluate cell-membrane integrity. The SYTOX-green dye selectively permeates through compromised cell membranes and produces green-fluorescent color upon interaction with nucleic acid. […] For the assay protocol, a 1.0 ml aliquot of the cell suspension was incubated with 10 μl of the dye solution ([…]) for 15 minutes in the dark, resulting in a final dye concentration of […]. The dye concentration and the incubation time were validated by the heat-treated K. brevis cells for 1 h at 60° C. The cell suspension was then transferred in an optically clear well plate for visualization under an inverted fluorescence microscope (Ex: 465-495 nm; Em: 515 nm, long pass).

[1] abbreviates: gallic acid 5 mg/mL in the foam stock solution, Tween 80 1.25 mg/mL.

As to `O.O=C(O)c1cc(O)c(O)c(O)c1` [gallic acid, Gallic acid monohydrate], under setting [1], the “time by which non-viable cells become lysed (loss of green fluorescence)” value is not above 6 h and the “time to membrane compromised cells (SYTOX-green)” value was not above 3 h. For the same molecule, the “cell green fluorescence (lysis), SYTOX-green” value (gallic acid in foam, 24 hours) was “almost total loss of cell green fluorescence”.
